One assay addresses CAAX prenyl protease 1 (Saccharomyces cerevisiae S288c, UniProt P47154). The assay is described as follows: yeast CAAX protease Ste24 inhibition – biochemical, S. cerevisiae, plate reader, cherry-pick, dose response (AID 488815).
Assay [1] concerns the target Induced myeloid leukemia cell differentiation protein Mcl-1 (Homo sapiens, UniProt Q07820). Format: functional.
Assay [2] addresses T1, E3 ubiquitin-protein ligase XIAP (Homo sapiens, UniProt P98170). As to the kind of experiment: small molecules displacing peptide from XIAP – biochemical, IAP family, fluorescence polarization (AID 1018). Format: functional. Background: Polarisation of emitted light reports the rotation of a fluorescent probe.
A short description of assay [3]: viability of PTEN-deleted HCT116 cells – cell-based, HCT116 PTEN knockout, dose response (AID 1047).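 Note: HCT116 colon tumor cells with PTEN knocked out; cells exposed to compound for 60 hours before readout; potency for loss of cell viability measured by luminescence.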 The format is functional.
Assay [4] concerns the target T1, E3 ubiquitin-protein ligase XIAP. As to the kind of experiment: Counter Screen using XIAP-Bir3 for Chemical Antagonists of Bir1/2 domains of IAP-family anti-apoptotic proteins. [Related pubchem assays (depositor defined):AID1018, AID1449, AID1514, AID1638, AID1749, AID1750, AID488957, AID488963]. (In general: A counterscreen serves to expose hits that act by an unwanted route or on another target.)

The nature of assay [5]: viability of HCT116 lacking mutant beta-catenin – cell-based, human colon tumor, dose response (AID 1045).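 Note: HCT116 colon tumor cells with beta catenin knocked out; cells exposed to compound for 60 hours.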 Format: functional.
Assay [6] concerns the target Eukaryotic translation initiation factor 4E (Mus musculus, UniProt P63073). As to the kind of experiment: blockers of eIF4G binding by eIF4E – biochemical, TR-FRET, dose response (AID 855).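 Note: potency for disrupting eIF4E binding to eIF4GI seen as loss of FRET.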 The format is functional. (Time-resolved FRET reads energy transfer from a long-lived donor to a nearby acceptor.)
In a further assay the test system is HeLa. The assay is described as follows: viability loss in HeLa cells – cell-based, 24 h, cherry-picked samples, cytotoxicity control, dose response (AID 504726).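 Note: potency for cytotoxicity as loss of luminescence signal.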 The format is functional. Conditions: Homo sapiens.
Assay [7] deals with T2, Corticotropin-releasing factor receptor 2/Corticotropin-releasing factor-binding protein (Homo sapiens, UniProt P24387+Q13324).
T2 sequence (Q13324 whole entry): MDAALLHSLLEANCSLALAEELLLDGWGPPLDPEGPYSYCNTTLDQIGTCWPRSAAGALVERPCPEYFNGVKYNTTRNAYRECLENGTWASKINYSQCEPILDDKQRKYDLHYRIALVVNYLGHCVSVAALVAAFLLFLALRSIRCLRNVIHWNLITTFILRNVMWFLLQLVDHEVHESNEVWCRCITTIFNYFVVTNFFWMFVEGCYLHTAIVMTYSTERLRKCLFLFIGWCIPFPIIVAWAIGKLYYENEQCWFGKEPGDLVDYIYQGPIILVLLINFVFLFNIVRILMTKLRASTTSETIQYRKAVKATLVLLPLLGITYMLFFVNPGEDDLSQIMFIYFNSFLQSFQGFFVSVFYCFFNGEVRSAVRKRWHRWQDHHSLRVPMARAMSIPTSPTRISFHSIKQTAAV
T2 sequence (P24387 whole entry): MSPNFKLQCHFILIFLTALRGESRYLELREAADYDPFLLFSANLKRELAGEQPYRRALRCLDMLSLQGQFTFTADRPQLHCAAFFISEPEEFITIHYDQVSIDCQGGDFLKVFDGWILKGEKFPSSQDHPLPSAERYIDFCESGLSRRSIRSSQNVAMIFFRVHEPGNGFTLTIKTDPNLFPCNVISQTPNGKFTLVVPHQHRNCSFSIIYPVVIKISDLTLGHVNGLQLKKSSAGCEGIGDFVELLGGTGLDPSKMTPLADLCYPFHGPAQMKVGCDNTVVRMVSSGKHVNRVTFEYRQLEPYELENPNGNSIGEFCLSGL
As to the kind of experiment: activators of CRF receptor 2 with binding protein – uHTS hits, confirmation (AID 602473). The following applies: read-out: EC50_Mean. The format is functional.

A further assay has as its target Keap1/Nrf2 (Homo sapiens, UniProt Q14145). The assay is described as follows: disruptors of Keap1 binding to Nrf2 peptide – biochemical, fluorescence polarization, cherry-picked samples, dose response (AID 588683).
A further assay deals with ORF 73 (Human herpesvirus 8, UniProt O40947). As to the kind of experiment: KSHV LANA DNA-binding disruption – biochemical, fluorescence polarization, cherry-picked samples, dose response (AID 504725).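 Note: fluorescence polarization of a labeled DNA duplex reporting LANA DNA binding; potency is for inhibitors that block LANA binding to the DNA.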 Also on record: species or system Human gammaherpesvirus 8.
In another assay the target is Hexokinase-1 (Homo sapiens, UniProt P19367). As to the kind of experiment: HK1 enzyme activation by HKDC1 hits – biochemical, selectivity assay for HKDC1 activator project, dose response (AID 504762). The format is functional.
The next assay has as its target T3, Hexokinase HKDC1 (Homo sapiens, UniProt Q2TB90).
T3 sequence (Q2TB90 whole entry): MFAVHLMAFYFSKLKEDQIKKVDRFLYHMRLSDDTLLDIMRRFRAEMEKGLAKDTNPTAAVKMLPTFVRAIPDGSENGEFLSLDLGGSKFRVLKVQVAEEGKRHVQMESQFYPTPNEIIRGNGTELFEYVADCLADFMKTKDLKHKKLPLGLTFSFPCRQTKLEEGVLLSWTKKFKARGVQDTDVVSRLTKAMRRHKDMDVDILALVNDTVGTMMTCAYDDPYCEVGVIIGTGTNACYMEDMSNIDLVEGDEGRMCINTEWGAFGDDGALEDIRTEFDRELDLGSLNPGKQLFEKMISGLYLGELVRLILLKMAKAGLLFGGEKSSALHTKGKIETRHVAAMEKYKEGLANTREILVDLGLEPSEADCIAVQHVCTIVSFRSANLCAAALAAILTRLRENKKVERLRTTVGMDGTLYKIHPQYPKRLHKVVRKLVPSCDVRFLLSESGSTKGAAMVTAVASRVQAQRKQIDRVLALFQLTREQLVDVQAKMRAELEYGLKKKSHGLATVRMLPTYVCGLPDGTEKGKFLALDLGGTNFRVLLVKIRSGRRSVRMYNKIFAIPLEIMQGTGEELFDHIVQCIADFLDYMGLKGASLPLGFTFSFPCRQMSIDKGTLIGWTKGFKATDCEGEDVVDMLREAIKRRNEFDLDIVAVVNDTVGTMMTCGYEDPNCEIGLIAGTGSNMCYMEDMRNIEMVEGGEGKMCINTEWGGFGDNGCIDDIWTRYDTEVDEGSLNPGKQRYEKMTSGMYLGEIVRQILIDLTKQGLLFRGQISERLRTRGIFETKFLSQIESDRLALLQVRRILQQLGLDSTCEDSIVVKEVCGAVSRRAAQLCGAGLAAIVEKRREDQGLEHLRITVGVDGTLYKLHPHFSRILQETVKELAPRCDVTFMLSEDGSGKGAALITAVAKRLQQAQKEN
The assay is described as follows: activation of HKDC1 glucose phosphorylation – biochemical, W721R variant, dose response (AID 504730). The format is functional.

Assay [8] addresses DNA dC->dU-editing enzyme APOBEC-3G (Homo sapiens, UniProt Q9HC16). As to the kind of experiment: Dose Response confirmation of small molecule APOBEC3G DNA Deaminase Inhibitors via a fluorescence-based single-stranded DNA deaminase assay. [Related pubchem assays (depositor defined):AID493012, AID493028]. The format is functional.
For the next assay, the target named is Phosphomannomutase 2 (Homo sapiens, UniProt O15305). As to the kind of experiment: Counter screen SAR assay for PMM2 inhibitors via a fluorescence intensity assay. [Related pubchem assays (depositor defined):AID1545, AID1574].
The target of assay [9] is T4, Rac GTPase-activating protein 1 (Homo sapiens, UniProt Q9H0H5).
T4 sequence (Q9H0H5 whole entry): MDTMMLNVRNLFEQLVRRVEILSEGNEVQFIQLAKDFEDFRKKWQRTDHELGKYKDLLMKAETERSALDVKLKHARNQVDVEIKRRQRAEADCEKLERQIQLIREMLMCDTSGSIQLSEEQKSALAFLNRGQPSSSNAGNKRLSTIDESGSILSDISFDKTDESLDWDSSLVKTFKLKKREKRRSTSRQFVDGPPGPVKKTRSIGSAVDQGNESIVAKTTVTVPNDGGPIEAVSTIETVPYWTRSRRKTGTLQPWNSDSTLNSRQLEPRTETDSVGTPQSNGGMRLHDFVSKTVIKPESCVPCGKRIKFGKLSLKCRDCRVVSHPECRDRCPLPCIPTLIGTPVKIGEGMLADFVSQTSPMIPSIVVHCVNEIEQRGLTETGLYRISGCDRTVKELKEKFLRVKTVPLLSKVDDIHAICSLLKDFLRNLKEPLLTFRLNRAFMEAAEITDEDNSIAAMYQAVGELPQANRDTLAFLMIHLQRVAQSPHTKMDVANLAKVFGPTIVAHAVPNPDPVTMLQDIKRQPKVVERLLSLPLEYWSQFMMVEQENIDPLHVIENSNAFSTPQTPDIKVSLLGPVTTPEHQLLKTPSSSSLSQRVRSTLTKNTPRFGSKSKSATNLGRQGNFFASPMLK
As to the kind of experiment: blockers of MgcRacGAP-driven Rac1 GTP hydrolysis – biochemical, ADP Hunter fluorescence, primary and confirmatory, confirmation (AID 624330). Format: functional.

The target in assay [10] is T5, Mannose-6-phosphate isomerase (Homo sapiens, UniProt P34949).
T5 sequence (P34949 whole entry): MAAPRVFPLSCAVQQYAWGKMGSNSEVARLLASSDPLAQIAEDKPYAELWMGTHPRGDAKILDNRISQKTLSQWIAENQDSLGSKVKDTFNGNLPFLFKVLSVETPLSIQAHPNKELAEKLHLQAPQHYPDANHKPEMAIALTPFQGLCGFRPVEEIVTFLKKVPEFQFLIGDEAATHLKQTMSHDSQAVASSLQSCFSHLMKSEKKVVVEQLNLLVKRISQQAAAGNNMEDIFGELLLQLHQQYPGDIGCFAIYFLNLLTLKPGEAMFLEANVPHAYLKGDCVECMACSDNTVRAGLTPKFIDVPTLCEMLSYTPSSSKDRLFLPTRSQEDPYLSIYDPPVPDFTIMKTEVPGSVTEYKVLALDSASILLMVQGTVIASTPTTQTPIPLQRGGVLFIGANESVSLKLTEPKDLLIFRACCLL
As to the kind of experiment: phosphomannose isomerase inhibition – biochemical, fluorescence intensity, confirmation (AID 1535).

In a further assay the test system is Vero. As to the kind of experiment: cells. Conditions: Chlorocebus sabaeus. The format is functional.
A short description of assay [11]: HEK-293T viability loss, compound-treated – cell-based, uHTS hits, cytotoxicity control for B/T-cell NF-kB inhibitor project, dose response (AID 489019).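 Note: IC50 reflects cytotoxicity as loss of cell viability.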 The format is functional.
A further assay has as its target Paired box protein Pax-8 (Homo sapiens, UniProt Q06710). As to the kind of experiment: PAX8 transcriptional activity inhibition in RMG-I – RMG-I cells, luciferase, cherry-pick, dose response (AID 687027).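 Note: luciferase reporter driven by Pax8 target thyroperoxidase promoter measured by SteadyGlo luminescence.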 Format: functional, cell-based.
Assay [12] in a line: Luminescence Cell-Based Dose Retest to Confirm Inhibitors of Cancer Stem Cells. [Related pubchem assays (depositor defined):AID2717, AID2721]. Conditions: Homo sapiens. The format is functional.
Another assay relates to Jurkat. As to the kind of experiment: blockers of NF-kB activation in T cells – Jurkat, luciferase reporter, luminescence, B- and T-cell, dose response (AID 489004).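 Note: NF-kB luciferase reporter Jurkat cells stimulated with PMA plus ionomycin.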 Format: functional, cell-based. The following applies: Homo sapiens.

Active and inactive are the calls of the source.

T1 sequence (P98170 whole entry): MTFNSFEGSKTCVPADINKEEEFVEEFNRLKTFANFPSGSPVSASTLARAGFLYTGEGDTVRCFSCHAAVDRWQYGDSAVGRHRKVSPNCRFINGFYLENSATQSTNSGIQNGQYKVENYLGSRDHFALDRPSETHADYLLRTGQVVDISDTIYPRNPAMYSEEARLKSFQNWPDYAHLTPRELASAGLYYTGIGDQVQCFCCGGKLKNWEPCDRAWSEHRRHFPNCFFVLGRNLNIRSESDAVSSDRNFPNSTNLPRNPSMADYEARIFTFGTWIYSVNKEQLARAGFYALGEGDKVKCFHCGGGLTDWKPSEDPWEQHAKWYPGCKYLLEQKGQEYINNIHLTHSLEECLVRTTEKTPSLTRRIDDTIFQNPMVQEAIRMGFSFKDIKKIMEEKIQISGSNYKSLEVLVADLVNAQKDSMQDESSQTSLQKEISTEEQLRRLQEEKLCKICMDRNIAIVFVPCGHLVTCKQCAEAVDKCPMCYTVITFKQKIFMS
Sequence of Keap1/Nrf2 (Q16236 whole entry): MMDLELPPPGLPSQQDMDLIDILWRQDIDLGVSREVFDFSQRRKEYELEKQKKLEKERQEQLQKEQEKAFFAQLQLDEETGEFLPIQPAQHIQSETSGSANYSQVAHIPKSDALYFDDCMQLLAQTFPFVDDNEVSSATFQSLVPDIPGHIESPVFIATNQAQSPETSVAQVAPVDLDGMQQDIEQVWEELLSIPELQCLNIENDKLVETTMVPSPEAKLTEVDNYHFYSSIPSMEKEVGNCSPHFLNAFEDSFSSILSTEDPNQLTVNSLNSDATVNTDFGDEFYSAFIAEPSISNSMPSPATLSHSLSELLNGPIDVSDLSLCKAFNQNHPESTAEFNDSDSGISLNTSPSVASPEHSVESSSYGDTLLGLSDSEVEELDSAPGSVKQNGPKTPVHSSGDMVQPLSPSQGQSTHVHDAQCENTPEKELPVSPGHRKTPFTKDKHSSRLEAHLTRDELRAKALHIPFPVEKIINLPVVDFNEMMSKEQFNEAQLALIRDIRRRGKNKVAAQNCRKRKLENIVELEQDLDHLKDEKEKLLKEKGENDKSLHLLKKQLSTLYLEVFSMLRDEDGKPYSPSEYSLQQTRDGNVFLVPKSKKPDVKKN
Sequence of Keap1/Nrf2 (Q14145 whole entry): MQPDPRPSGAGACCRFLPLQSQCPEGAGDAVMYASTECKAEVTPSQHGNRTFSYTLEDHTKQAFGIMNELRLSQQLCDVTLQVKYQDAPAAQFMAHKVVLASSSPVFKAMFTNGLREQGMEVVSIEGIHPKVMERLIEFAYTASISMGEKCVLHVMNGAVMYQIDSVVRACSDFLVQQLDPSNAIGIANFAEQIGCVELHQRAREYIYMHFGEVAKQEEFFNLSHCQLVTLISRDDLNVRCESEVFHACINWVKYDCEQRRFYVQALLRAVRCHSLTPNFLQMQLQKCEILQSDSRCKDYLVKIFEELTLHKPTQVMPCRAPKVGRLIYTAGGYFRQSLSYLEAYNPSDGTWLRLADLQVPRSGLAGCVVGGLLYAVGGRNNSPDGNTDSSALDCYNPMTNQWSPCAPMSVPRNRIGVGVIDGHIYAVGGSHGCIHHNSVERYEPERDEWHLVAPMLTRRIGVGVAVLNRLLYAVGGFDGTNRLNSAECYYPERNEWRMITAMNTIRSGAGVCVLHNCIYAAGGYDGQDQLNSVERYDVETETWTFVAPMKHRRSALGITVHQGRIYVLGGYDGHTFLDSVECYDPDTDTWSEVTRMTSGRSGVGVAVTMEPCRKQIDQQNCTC
Sequence of ORF 73 (O40947 whole entry): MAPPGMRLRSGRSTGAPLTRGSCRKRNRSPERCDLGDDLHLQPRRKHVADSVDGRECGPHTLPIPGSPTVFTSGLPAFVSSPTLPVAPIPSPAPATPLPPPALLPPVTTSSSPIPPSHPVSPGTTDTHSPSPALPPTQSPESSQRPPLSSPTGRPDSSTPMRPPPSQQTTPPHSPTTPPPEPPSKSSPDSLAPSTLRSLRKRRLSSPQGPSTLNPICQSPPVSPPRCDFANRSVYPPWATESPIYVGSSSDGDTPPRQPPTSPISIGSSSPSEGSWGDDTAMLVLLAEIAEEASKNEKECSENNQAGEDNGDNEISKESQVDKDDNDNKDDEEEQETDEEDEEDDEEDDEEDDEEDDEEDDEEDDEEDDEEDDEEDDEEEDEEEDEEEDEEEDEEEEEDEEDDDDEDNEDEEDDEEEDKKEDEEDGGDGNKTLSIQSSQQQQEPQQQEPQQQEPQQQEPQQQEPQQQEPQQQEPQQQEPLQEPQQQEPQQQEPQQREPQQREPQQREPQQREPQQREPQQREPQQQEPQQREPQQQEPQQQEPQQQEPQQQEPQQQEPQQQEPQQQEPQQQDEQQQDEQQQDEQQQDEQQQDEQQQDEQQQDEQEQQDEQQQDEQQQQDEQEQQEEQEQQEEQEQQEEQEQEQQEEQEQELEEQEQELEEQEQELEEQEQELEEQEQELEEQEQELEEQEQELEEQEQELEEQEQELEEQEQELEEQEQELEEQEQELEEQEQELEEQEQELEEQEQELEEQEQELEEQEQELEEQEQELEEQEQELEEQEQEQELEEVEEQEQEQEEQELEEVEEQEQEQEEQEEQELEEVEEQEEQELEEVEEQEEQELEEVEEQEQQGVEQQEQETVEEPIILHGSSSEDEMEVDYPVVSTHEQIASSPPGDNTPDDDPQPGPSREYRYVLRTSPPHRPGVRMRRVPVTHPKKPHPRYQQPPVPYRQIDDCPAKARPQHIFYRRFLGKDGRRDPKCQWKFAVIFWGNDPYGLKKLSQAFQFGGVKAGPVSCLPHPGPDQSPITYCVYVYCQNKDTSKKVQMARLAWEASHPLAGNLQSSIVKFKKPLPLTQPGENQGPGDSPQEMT
Sequence of DNA dC->dU-editing enzyme APOBEC-3G (Q9HC16 whole entry): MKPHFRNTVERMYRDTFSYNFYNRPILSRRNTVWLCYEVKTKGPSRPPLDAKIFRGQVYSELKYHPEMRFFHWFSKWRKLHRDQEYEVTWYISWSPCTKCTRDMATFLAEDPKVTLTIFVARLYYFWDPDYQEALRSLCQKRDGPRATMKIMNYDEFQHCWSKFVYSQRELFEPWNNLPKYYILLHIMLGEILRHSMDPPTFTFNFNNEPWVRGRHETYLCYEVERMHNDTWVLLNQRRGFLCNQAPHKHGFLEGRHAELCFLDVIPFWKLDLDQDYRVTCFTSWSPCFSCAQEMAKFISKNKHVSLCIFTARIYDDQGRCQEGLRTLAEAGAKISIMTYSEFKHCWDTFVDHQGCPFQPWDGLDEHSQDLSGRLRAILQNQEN
Sequence of Paired box protein Pax-8 (Q06710 whole entry): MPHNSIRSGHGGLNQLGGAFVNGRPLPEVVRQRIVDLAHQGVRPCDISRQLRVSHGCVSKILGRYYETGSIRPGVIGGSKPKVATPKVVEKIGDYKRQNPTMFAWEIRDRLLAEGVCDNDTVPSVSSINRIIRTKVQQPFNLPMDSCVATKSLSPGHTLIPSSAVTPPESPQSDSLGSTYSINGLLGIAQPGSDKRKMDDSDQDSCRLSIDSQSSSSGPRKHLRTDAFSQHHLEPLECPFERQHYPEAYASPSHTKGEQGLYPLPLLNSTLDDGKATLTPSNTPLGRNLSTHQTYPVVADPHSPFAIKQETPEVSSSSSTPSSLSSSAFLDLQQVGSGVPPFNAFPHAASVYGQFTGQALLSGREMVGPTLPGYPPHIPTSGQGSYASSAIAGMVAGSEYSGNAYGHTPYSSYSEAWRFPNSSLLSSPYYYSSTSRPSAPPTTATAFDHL
Sequence of Eukaryotic translation initiation factor 4E (P63073 whole entry): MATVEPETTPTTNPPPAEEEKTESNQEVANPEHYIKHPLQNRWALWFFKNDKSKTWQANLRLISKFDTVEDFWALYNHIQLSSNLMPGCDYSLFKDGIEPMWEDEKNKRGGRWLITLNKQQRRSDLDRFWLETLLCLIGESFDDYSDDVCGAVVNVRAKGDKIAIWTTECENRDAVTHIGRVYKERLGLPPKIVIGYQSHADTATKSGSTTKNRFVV
Sequence of CAAX prenyl protease 1 (P47154 whole entry): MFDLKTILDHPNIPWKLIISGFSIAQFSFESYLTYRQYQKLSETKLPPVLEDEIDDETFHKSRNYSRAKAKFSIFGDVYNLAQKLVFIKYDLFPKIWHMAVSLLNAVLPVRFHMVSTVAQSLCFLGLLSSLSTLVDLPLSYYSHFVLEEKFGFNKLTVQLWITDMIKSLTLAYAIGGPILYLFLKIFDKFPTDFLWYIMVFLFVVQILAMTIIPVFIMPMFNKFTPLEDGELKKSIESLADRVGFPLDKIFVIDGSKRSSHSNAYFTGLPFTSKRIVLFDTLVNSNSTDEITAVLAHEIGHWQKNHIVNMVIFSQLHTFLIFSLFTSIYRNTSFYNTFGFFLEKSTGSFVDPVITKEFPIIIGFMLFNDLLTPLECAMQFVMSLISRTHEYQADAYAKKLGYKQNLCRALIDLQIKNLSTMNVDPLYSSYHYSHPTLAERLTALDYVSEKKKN
Sequence of Phosphomannomutase 2 (O15305 whole entry): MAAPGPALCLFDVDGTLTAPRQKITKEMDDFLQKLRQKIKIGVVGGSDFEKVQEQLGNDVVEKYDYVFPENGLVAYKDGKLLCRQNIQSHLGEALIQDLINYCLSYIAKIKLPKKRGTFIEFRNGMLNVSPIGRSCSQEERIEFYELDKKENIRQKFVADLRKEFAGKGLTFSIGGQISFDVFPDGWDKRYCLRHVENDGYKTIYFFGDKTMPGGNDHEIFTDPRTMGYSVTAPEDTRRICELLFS
Sequence of Induced myeloid leukemia cell differentiation protein Mcl-1 (Q07820 whole entry): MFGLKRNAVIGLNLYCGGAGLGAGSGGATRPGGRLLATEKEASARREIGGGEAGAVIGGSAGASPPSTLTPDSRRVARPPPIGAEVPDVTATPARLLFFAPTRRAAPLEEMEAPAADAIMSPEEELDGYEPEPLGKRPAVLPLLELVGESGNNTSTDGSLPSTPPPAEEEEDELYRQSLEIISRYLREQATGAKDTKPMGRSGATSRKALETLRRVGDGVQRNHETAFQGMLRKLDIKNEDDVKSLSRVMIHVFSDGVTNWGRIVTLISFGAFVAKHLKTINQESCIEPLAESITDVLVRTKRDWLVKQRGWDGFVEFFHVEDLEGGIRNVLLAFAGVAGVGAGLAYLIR

By AC50 is commonly meant the concentration giving half of the maximal activity seen. Regarding `CC1=C(C(=O)N2CCOCC2)C(c2ccccc2F)C2=C(O)CC(C)(C)CC2=N1` (stereo not drawn), the AC50 on CAAX prenyl protease 1 was 14.6 µM (active).
As a reminder, the IC50 is the concentration at which inhibition is half-maximal. `O=C(/C=C/c1ccco1)Nc1ccc2nn(-c3ccccc3)nc2c1`: the IC50 in [1] is 5.43 µM (active); in assay [2], > 100 µM (not active); in assay [4] it was > 100 µM (inactive). In addition, the values for the EC50 in assay [3] and in assay [5] were 4.11 µM (active) and 4.53 µM (active), respectively.
As for `O=C(O)CCCNC(=O)c1cncc(Br)c1`, the IC50 in assay [2] is > 100 µM (not active); in assay [4], > 100 µM (inactive).
On to `CCCN(CCC)S(=O)(=O)c1ccc(C(=O)OCCN2C(=O)c3cccc4c(N5CCOCC5)ccc(c34)C2=O)cc1`, for which, in assay [6], the IC50 is > 64 µM (inactive). Moreover, the AC50 with HeLa was 57.8 µM (active); at Keap1/Nrf2, 7.75 µM (active); on ORF 73, 21.4 µM (active). Moreover, the EC50 in assay [7] is 6.32 µM (active).
`Cc1cc(C2=NN=C(Nc3ccc(S(=O)(=O)N4CCOCC4)cc3)SC2)c(C)n1CC1CCCO1` (stereo not drawn): the EC50 at Hexokinase-1 was 29.5 µM (inactive); at Hexokinase HKDC1, 31.2 µM (inactive).
Regarding `Sc1nnc(Nc2ccccc2Cl)s1`, the IC50 in assay [8] was > 100 µM (inactive); on Phosphomannomutase 2, > 100 µM (inactive); in [9], 54.8 µM (active); in assay [10], > 50 µM (inactive).
A word on the CC50: it is the concentration giving 50% cytotoxicity. Regarding `C[C@@H]1O[C@@H](O[C@@H]2C=C3CCC4C(CC[C@]5(C)[C@@H](c6ccc(=O)oc6)CC[C@]45O)[C@@]3(C)CC2)[C@H](O)[C@H](O)[C@H]1O` (stereo partly drawn), the CC50 in the assay with Vero was < 0.05 µM (active). Besides, the IC50 in [11] was > 80 µM (inactive); in the assay on Jurkat it was 1.66 µM (active). Also, the AC50 at Paired box protein Pax-8 is < 0.26 µM (active); in assay [12] it was < 0.16 µM (active).
With `COc1ccc2nc3ccccc3[n+]([O-])c2c1`, the AC50 in the assay with HeLa is 119 µM (active); on Keap1/Nrf2, 8.81 µM (active); at ORF 73 it was 30.8 µM (active). In addition, in [7], the EC50 is 18.1 µM (active).

The record behind these values is ChEMBL document CHEMBL1201862, “PubChem BioAssay data set” (2004).
